Patent publication US11066396B2 (priority 2016, dated 2021)

Experiments:
HDAC8 = HDAC8 (Homo sapiens (Human), UniProt Q9BY41); details: read-out: HDAC8 IC50
HDAC1 = HDAC1 (Homo sapiens (Human), UniProt Q13547); details: read-out: HDAC1 IC50
HDAC1, sequence (Q13547 whole entry): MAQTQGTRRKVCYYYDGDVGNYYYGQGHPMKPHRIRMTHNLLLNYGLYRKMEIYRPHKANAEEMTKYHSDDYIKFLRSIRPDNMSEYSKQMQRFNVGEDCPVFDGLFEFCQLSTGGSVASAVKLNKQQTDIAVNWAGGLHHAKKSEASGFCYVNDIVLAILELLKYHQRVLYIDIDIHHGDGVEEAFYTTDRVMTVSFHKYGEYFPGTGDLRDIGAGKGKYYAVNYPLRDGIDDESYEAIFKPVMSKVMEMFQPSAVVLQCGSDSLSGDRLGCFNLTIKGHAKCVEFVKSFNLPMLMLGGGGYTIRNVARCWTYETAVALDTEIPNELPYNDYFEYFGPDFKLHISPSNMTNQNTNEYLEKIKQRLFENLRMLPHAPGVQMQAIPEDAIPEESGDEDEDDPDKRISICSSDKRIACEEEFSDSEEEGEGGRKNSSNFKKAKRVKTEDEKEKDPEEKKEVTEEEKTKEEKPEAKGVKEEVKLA

HDAC8, sequence (Q9BY41 whole entry): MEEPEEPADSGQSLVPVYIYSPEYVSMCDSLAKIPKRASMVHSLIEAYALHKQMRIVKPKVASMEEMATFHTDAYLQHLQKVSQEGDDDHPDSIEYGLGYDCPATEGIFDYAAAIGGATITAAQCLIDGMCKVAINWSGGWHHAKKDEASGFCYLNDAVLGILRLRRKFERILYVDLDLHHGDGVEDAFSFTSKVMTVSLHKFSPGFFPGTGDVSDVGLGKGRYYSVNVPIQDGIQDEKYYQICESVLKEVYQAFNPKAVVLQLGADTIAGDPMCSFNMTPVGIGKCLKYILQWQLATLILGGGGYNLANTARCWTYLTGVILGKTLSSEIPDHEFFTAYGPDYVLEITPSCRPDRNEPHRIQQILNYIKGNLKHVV

Row | SMILES | IC50 (HDAC8) [nM] | IC50 (HDAC1) [nM]
1 | Fc1ccc2ccc(OCc3ccc(-c4noc(C(F)(F)F)n4)cn3)nc2c1 [Example 326, 7-fluoro-2-({5-[5-(trifluoromethyl)-1,2,4-oxadiazol-3-yl]pyridin-2-yl}methoxy)quinoline] | 45000 | 35000
2 | CC(C(=O)N(Cc1ccc(-c2noc(C(F)(F)F)n2)cc1)c1cccc(C(F)(F)F)c1)n1cncn1 (racemic) [Example 66, 2-(1H-1,2,4-triazol-1-yl)-N-(4-(5-(trifluoromethyl)-1,2,4-oxadiazol-3-yl)benzyl)-N-(3-(trifluoromethyl)phenyl)propanamide] | 1900 | 720
3 | FC(F)(F)c1nc(-c2ccc(CNC3CCc4[nH]nc(C(F)(F)F)c4C3)cc2)no1 (racemic) [Example 353, 3-(trifluoromethyl)-N-({4-[5-(trifluoromethyl)-1,2,4-oxadiazol-3-yl]phenyl}methyl)-4,5,6,7-tetrahydro-1H-indazol-5-amine] | 900 | 410
4 | O=C(Cc1cnccn1)N(Cc1ccc(-c2noc(C(F)(F)F)n2)cc1)c1cccc(C(F)(F)F)c1 [Example 94, 2-(pyrazin-2-yl)-N-(4-(5-(trifluoromethyl)-1,2,4-oxadiazol-3-yl)benzyl)-N-(3-(trifluoromethyl)phenyl)acetamide] | 2300 | 1400
5 | NC(=O)c1ccnc(NCc2ccc(-c3noc(C(F)(F)F)n3)cn2)c1 [Example 442, 2-[({5-[5-(trifluoromethyl)-1,2,4-oxadiazol-3-yl]pyridin-2-yl}methyl)amino]pyridine-4-carboxamide] | 750 | 280
6 | FC(F)(F)c1nc(-c2ccc(COc3ncccn3)cc2)no1 [Example 457, 2-({4-[5-(trifluoromethyl)-1,2,4-oxadiazol-3-yl]benzyl}oxy)pyrimidine] | 730 | 2600
7 | O=C1CCc2cccc(C(F)(F)F)c2N1Cc1ccc(-c2noc(C(F)(F)F)n2)cn1 [Example 475, 8-(trifluoromethyl)-1-({5-[5-(trifluoromethyl)-1,2,4-oxadiazol-3-yl]pyridin-2-yl}methyl)-3,4-dihydroquinolin-2(1H)-one] | 5600 | 880
8 | CN(C)C(=O)c1cccc(NCc2ccc(-c3noc(C(F)(F)F)n3)cn2)c1 [Example 438, N,N-dimethyl-3-[({5-[5-(trifluoromethyl)-1,2,4-oxadiazol-3-yl]pyridin-2-yl}methyl)amino]benzamide] | 1000 | 520
9 | CN1CC(C(=O)N(Cc2ccc(-c3noc(C(F)(F)F)n3)cn2)c2cccc(F)c2)CCC1=O (racemic) [Example 402, N-(3-fluorophenyl)-1-methyl-6-oxo-N-({5-[5-(trifluoromethyl)-1,2,4-oxadiazol-3-yl]pyridin-2-yl}methyl)piperidine-3-carboxamide] | 2600 | 340
10 | Cn1nccc1COc1cc(-c2noc(C(F)(F)F)n2)ccn1 [Example 221, 2-[(1-methyl-1H-pyrazol-5-yl)methoxy]-4-[5-(trifluoromethyl)-1,2,4-oxadiazol-3-yl]pyridine] | 1600 | 2800
11 | CN1CCN(c2ccc(-c3noc(C(F)(F)F)n3)cc2)C(c2ccccc2)C1 (stereo not shown) [Example 33, 3-(4-(4-Methyl-2-phenylpiperazin-1-yl)phenyl)-5-(trifluoromethyl)-1,2,4-oxadiazole] | 3900 | 5300
12 | O=C1CCCC(c2ccccc2)N1c1ccc(-c2noc(C(F)(F)F)n2)cn1 (stereo not shown) [Example 128, 6-phenyl-1-(5-(5-(trifluoromethyl)-1,2,4-oxadiazol-3-yl)pyridin-2-yl)piperidin-2-one] | 5100 | 2900
13 | CN1CCN(CC(=O)N(Cc2ccc(-c3noc(C(F)(F)F)n3)cc2)c2cccc(C(F)(F)F)c2)CC1 [Example 93, 2-(4-methylpiperazin-1-yl)-N-(4-(5-(trifluoromethyl)-1,2,4-oxadiazol-3-yl)benzyl)-N-(3-(trifluoromethyl)phenyl)acetamide] | 2200 | 990
14 | Cc1nnc(CC(=O)N(Cc2ccc(-c3noc(C(F)(F)F)n3)cc2)c2cccc(C(F)(F)F)c2)n1C [Example 75, 2-(4,5-dimethyl-4H-1,2,4-triazol-3-yl)-N-(4-(5-(trifluoromethyl)-1,2,4-oxadiazol-3-yl)benzyl)-N-(3-(trifluoromethyl)phenyl)acetamide] | 2300 | 860
15 | NC(=O)c1cccc(NCc2ccc(-c3noc(C(F)(F)F)n3)cn2)c1 [Example 449, 3-[({5-[5-(trifluoromethyl)-1,2,4-oxadiazol-3-yl]pyridin-2-yl}methyl)amino]benzamide] | 1900 | 310
16 | O=C1CCC(NCc2ccc(-c3noc(C(F)(F)F)n3)cn2)c2ccccc2N1 (racemic) [Example 381, 5-[({5-[5-(trifluoromethyl)-1,2,4-oxadiazol-3-yl]pyridin-2-yl}methyl)amino]-1,3,4,5-tetrahydro-2H-1-benzazepin-2-one] | 3900 | 520

Row | SMILES | IC50 (HDAC8) [nM] | IC50 (HDAC1) [nM]
17 | Cc1nnc(CC(=O)N(Cc2ccc(-c3noc(C(F)(F)F)n3)cn2)c2cccc(F)c2)s1 [Example 395, N-(3-fluorophenyl)-2-(5-methyl-1,3,4-thiadiazol-2-yl)-N-({5-[5-(trifluoromethyl)-1,2,4-oxadiazol-3-yl]pyridin-2-yl}methyl)acetamide] | 1300 | 330
18 | O=C1NCCN(c2ccc(-c3noc(C(F)(F)F)n3)cn2)C1c1cccc(F)c1 (stereo not shown) [Example 153, 3-(3-fluorophenyl)-4-(5-(5-(trifluoromethyl)-1,2,4-oxadiazol-3-yl)pyridin-2-yl)piperazin-2-one] | 280 | 124
19 | Cc1noc(CC(=O)N(Cc2ccc(-c3noc(C(F)(F)F)n3)cn2)c2cccc(F)c2)n1 [Example 396, N-(3-fluorophenyl)-2-(3-methyl-1,2,4-oxadiazol-5-yl)-N-({5-[5-(trifluoromethyl)-1,2,4-oxadiazol-3-yl]pyridin-2-yl}methyl)acetamide] | 1000 | 380
20 | CN1CC(=O)N(c2ccc(-c3noc(C(F)(F)F)n3)cc2)C(c2ccccc2)C1 (stereo not shown) [Example 162, 4-methyl-6-phenyl-1-(4-(5-(trifluoromethyl)-1,2,4-oxadiazol-3-yl)phenyl)piperazin-2-one] | 1400 | 850
21 | O=C1COC[C@H](CNCc2ccc(-c3noc(C(F)(F)F)n3)cn2)N1 [Example 451, (5S)-5-{[({5-[5-(trifluoromethyl)-1,2,4-oxadiazol-3-yl]pyridin-2-yl}methyl)amino]methyl}morpholin-3-one] | 2400 | 2500
22 | FC(F)(F)c1nc(-c2ccc(CNC3CCN(c4ncccn4)C3)cc2)no1 (racemic) [Example 354, 1-(pyrimidin-2-yl)-N-({4-[5-(trifluoromethyl)-1,2,4-oxadiazol-3-yl]phenyl}methyl)pyrrolidin-3-amine] | 680 | 1600
23 | CC(C)(C(=O)N(Cc1ccc(-c2noc(C(F)(F)F)n2)cn1)c1cccc(F)c1)n1cccn1 [Example 391, N-(3-fluorophenyl)-2-methyl-2-(1H-pyrazol-1-yl)-N-({5-[5-(trifluoromethyl)-1,2,4-oxadiazol-3-yl]pyridin-2-yl}methyl)propanamide] | 7400 | 1400
24 | FC(F)(F)c1nc(-c2ccc(CNC3CCN(c4ccccn4)CC3)nc2)no1 [Example 379, 1-(pyridin-2-yl)-N-({5-[5-(trifluoromethyl)-1,2,4-oxadiazol-3-yl]pyridin-2-yl}methyl)piperidin-4-amine] | 7700 | 1900
25 | O=C(C1CCS(=O)(=O)C1)N(Cc1ccc(-c2noc(C(F)(F)F)n2)cn1)c1cccc(F)c1 (racemic) [Example 54, N-(3-fluorophenyl)-N-((5-(5-(trifluoromethyl)-1,2,4-oxadiazol-3-yl)pyridin-2-yl)methyl)tetrahydrothiophene-3-carboxamide 1,1-dioxide] | 2600 | 270
26 | CC1(C)CCCN1C(=O)[C@@H]1CCC(=O)N1c1ccc(-c2noc(C(F)(F)F)n2)c(F)c1 [Example 342, (5S)-5-[(2,2-dimethylpyrrolidin-1-yl)carbonyl]-1-{3-fluoro-4-[5-(trifluoromethyl)-1,2,4-oxadiazol-3-yl]phenyl}pyrrolidin-2-one] | 25000 | 45000
27 | FC(F)(F)c1nc(-c2ccc(CNc3cccnc3)cc2)no1 [Example 383, N-{4-[5-(trifluoromethyl)-1,2,4-oxadiazol-3-yl]benzyl}pyridin-3-amine] | 3100 | 1700
28 | Cc1n[nH]c2c1CC(NCc1ccc(-c3noc(C(F)(F)F)n3)cn1)CC2 (racemic) [Example 372, 3-methyl-N-({5-[5-(trifluoromethyl)-1,2,4-oxadiazol-3-yl]pyridin-2-yl}methyl)-4,5,6,7-tetrahydro-1H-indazol-5-amine] | 2900 | 400
29 | O=C(N(Cc1ccc(-c2noc(C(F)(F)F)n2)cn1)c1cccc(F)c1)C1(CN2CCOCC2)CC1 [Example 65, N-(3-fluorophenyl)-1-(morpholinomethyl)-N-((5-(5-(trifluoromethyl)-1,2,4-oxadiazol-3-yl)pyridin-2-yl)methyl)cyclopropane-1-carboxamide] | 3000 | 240
30 | O=C1CCc2cccnc2N1Cc1ccc(-c2noc(C(F)(F)F)n2)cn1 [Example 330, 1-({5-[5-(trifluoromethyl)-1,2,4-oxadiazol-3-yl]pyridin-2-yl}methyl)-3,4-dihydro-1,8-naphthyridin-2(1H)-one] | 18000 | 3700
31 | FC(F)(F)c1nc(-c2ccnc(OCc3ccno3)c2)no1 [Example 207, 2-(isoxazol-5-ylmethoxy)-4-[5-(trifluoromethyl)-1,2,4-oxadiazol-3-yl]pyridine] | 1300 | 1500
32 | FC(F)(F)c1nc(-c2ccc(CNc3cnccn3)cc2)no1 [Example 417, N-{4-[5-(trifluoromethyl)-1,2,4-oxadiazol-3-yl]benzyl}pyrazin-2-amine] | 1900 | 2600
